# Entries after “also recorded” stand apart in the source; their conditions may differ.
# Columns and labels:
# Ub-YFP = Ub-YFP degredation in Hep3B cells; assay type: cell-based, human
# Method: This finding was supported by the following experiments; First, a model was developed to find inhibitor or inhibitors for the ubiquitin dependent degredation in the Hep3B cell line. For this purpose Hep3B cell expressing Ub-YFP genome were prepared. Ub-YFP is a system which was used to detect the ubiquitin dependent proteasome activity (26S). It is also known that Ub-YFP is not affected by the ubiquitin-independent protesome system. In further experiments, we tested molecules which are involved in different parts of the ubiquitination processes including PYR41 (Ubiquitin-activating enzyme (E1) inhibitor), NCC697923 (UBE2N E2 ubiquitin-conjugating enzyme inhibitor), SMER3 (ubiquitin ligase E3 inhibitor), SZL-P1-411 (Skp2 E3 ligase inhibitor), SKPIN C1 (Skp2 E3 ligase inhibitor), P005091 (USP7 inhibitor), Vialin A (USP4 and USP5 inhibitor), Spautin A (USP10 and USP13 inhibitor), ML 323 (USP1-UAF1 inhibitor), IU1 (USP14 inhibitor), and Mg132 (protesome inhibitor) for the inhibition of Ub-YFP degredation. […] MG132 was used as the inhibitor of the protesome activity (FIG. 12A). In the next experiment YFP protein amount was investigated in the presence of ketamin, Pyr41, and ketamin and Pyr41 together by western blot in Hep3B cell.
# The Ub-R-YFP open-reading frame was obtained from Ub-R-YFP was a gift from Nico Dantuma (Addgene plasmid #11948). Ub-R-YFP sequence was obtained from the original vector by cutting the plasmid with NheI and NotI enzymes (Thermo Scientific), blunt ended and was cloned into pBSK-clo2D which is cut by EcoRV restriction enzyme (SibEnzyme, E059). Ub-R-YFP was obtained from the pBSK-clo2D vector by cutting with BamHI. pLV-EF1a-IRES-Puro (85132-Addgene) vector was cut by BamHI restriction enzyme and dephospharylated and ligated with Ub-R-YFP. After the orientation construct was determined, pLV-EF1a-IRES-Puro-Ub-R-YFP was reproduced in large volumes using DH5a E. Coli.
# Hek293T cells were transfected with the pLV-EF1a-IRES-Puro-Ub-R-YFP and helper vectors psPAX2 and pMD2.G using Calcium Phosphate Mammalian Transfection Kit (631312-Takara bio). After 48 h supernatants containing Ub-R-YFP lentivirus were collected and target cells were infected under the presence of […] polybrene. After 24 hours, the media of the cells were replaced with media containing […] puromycin for 6 days. Then living cells were combined in a pool. Infected clones were maintained in the presence of 250 ng/ml puromycin.
# mice = assay: Weight test (forelimb grip) in aged mice; assay type: in vivo; conditions: mice at 22 months
# Description: Another grip test that measures muscle strength more finely is forelimb grip strength test. Many biomarkers related to aging have been identified in human. Importantly, the grip tests performed on humans has been defined as a highly predicitive indicator that can show disabilities, diseases and deaths that may occur due to aging (Iconaru et al., 2018; Sousa-Santos and Amaral, 2017) In this test a mouse is held by the middle base of the tail and lower it to allow it to grasp the weight which is a ball of tangled fine gauge stainless steel wire. This test is carried out by increasing the weight, investigating the weight that the mouse can carry or keeping the weight constant and how long the mouse can carry the weight.
# The experimental protocols were approved by the Ethics Committee of Ankara University, Faculty of Medicine, Medical Sciences Experimental Research and Application Center (Date: Dec. 11, 2019 and Decision number: 2019-22-189). Adult (12-mounts-old) C57BL/6 mice (5 for each group) were used. The mice were housed at the Experimental Animal Research Laboratory of Ankara University Faculty of Medicine. […] Tests related to locomotor activities of the mice were recorded and available.
# Weight test use to measure muscle strength (Deacon, 2013). […] The experiment was recorded by camera for a maximum of 5 minutes. Total griping time was evaluated.
# mice with GD symptoms [1] = conditions: cited from earlier work
# amyloid = assay: Amyloid staining of mouse tissues; assay type: in vivo; conditions: mice at 22 months
# Description: In the next study, the effects of NMDAR blocker on amyloid accumulation in brain, liver, and kidney of mice with the presence of memantine and control mice groups at 22 months were investigated by amyloid staining.
# Whole frozen tissues were sectioned with a microtome and fixed in 4% paraformaldehyde, Tissues were washed in PBS and the individual staining methods used in accordance with the manufacturer's recommendations. Total pixels from fluorescence in the images were quantified using Adobe Photoshop software CS2 (Adobe Systems), and normalized to a nuclear stain.
# hippocampal slices = conditions: 6-10 uM; cited from earlier work
# [2] = biological target: T1, acid beta-glucosidase (GCase) (Mus musculus, UniProt P17439); conditions: in vivo; cited from earlier work
# T1 construct: host or cells: mice (in vivo), US 2017/0273917 A1 and Klein et al. 2016
# T1 sequence (P17439 20-515): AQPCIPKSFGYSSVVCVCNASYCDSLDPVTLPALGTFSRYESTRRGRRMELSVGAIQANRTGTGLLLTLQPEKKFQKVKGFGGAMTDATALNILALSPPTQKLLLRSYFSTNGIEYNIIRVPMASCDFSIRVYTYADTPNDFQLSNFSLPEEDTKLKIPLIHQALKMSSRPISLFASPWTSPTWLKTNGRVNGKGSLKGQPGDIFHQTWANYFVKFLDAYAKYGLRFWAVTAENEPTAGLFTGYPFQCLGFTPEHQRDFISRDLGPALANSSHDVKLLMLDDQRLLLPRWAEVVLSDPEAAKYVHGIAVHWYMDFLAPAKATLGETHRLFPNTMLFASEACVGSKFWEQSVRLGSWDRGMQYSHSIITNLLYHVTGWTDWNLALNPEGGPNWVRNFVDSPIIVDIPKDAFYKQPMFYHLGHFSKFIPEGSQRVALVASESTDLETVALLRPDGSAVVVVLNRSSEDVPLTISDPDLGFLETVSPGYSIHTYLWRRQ
# [3] = cited from earlier work
# mice with GD symptoms [4] = conditions: inverted screen / hanging wire test; cited from earlier work
structure (smiles),measurement,setting,value
"CNC1(c2ccccc2Cl)CCCCC1=O (centres unmarked) [ketamin, 2-(2-chlorophenyl)-2-(methylamino)-cyclohexanone]",Ub-YFP degredation,Ub-YFP; Hep3B expressing Ub-YFP,no effect
same,YFP protein amount,"Ub-YFP; Hep3B, western blot",did not decrease
"CC12CC3CC(C)(C1)CC(N)(C3)C2 [memantine, 3,5-dimethyladamantan-1-amine]",forelimb grip: time holding a fixed weight,mice,four times longer
same,life span of mice with Gaucher disease symptoms,"mice with GD symptoms [1]; A/J, C3H/HeJ, DBA/2J, C57BL6/JolaHsd, CBE 25 mg/kg day",dramatically extended; also recorded: extend the lifespan
same,life span with memantine dose increased by 10 fold,"mice with GD symptoms [1]; mouse, in vivo",increases the life span of mice even more
same,amount of amyloid in brain tissue,amyloid,most significant difference
same,amount of amyloid in liver and kidney,amyloid,statistically significant decrease
same,LTP in hippocampal slices,hippocampal slices,do not attenuate
same,Gcase inhibition and level of Gcase substrates GlcCer and GSLs,[2],no effect
same,"free rat brain concentrations, lower in plasma",[3],20-30%
same,muscle strength / motor coordination of GD mice,mice with GD symptoms [4],much better; also recorded: improved significantly; also recorded: increase the muscle strength

# Reference: US20250161238A1, “NMDAR Antagonists Prevent Ageing and Aging-Associated Conditions and Diseases Through Increasing 20S Proteasome Activity” (priority 2022, published 2025)
